Laboratory results: patent publication US10183039B2, “Methods for the production of collagen IV” (Vanderbilt University, priority 2013, dated 2019)
One block for each compound: values may come before it.

Assays:
[1] = molecular target: T1, peroxidasin (Mus musculus, UniProt Q3UQ28); assay: In vitro basement membrane (uncrosslinked PFHR-9 matrix) reaction with halides and H2O2; type: biochemical; details: for S═N bond formation in isolated matrix: 10 mM phosphate pH 7.4, 100 mM KF, 1 mM H2O2, 1 h at 37° C.
T1 construct: Cultured murine PFHR9 cells synthesize collagen IV networks that contain sulfilimine crosslinks due to the activity of PXDN; endogenous in cells; host or cells: PFHR-9 cells (isolated matrix from KI-treated culture)
T1 sequence (Q3UQ28 24-1475): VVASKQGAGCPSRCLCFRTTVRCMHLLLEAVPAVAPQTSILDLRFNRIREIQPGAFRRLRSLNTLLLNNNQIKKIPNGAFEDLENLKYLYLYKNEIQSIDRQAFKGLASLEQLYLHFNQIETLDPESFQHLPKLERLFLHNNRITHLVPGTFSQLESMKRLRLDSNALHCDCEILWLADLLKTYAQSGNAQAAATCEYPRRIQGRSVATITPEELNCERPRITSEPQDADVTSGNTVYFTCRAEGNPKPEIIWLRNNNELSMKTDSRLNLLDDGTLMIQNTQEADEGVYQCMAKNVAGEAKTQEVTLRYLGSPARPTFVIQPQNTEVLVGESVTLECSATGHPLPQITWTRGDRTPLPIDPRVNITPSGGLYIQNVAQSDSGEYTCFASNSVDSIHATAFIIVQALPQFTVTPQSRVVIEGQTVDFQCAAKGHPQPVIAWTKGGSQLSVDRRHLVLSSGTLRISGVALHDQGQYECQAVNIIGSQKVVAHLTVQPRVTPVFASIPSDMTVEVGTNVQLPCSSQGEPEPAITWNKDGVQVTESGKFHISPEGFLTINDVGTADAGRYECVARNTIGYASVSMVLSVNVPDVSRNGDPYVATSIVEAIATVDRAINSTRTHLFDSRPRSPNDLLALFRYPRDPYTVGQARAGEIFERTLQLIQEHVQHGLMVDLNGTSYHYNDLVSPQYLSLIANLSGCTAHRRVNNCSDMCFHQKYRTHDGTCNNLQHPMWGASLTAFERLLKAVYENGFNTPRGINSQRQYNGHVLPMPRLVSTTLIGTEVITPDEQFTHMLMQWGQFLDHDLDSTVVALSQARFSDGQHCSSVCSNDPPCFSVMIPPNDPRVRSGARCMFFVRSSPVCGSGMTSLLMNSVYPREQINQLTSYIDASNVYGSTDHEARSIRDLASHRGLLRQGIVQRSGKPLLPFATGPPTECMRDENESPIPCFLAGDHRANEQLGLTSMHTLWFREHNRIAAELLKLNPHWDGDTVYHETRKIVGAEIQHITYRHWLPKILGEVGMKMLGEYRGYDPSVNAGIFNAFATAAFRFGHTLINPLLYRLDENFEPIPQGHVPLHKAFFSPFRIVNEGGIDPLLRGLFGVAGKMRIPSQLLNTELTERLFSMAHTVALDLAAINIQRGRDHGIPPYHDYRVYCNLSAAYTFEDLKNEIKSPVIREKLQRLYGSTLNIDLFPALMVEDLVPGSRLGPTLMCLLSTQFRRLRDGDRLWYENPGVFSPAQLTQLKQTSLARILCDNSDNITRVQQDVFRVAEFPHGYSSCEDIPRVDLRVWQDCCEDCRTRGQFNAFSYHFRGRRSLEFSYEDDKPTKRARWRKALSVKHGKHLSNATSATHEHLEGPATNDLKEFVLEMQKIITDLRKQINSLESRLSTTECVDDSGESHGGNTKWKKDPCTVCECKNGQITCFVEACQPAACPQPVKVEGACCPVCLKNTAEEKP
Protocol: (FIG. 8A) Matrix pellets isolated from KI-treated PFHR9 cell culture were extensively washed into 10 mM phosphate buffer (pH 7.4) supplemented with 100 mM KF to maintain ionic strength. Potassium salts of Cl— or Br— were added in indicated amounts. 1 hr reactions at 37° C. were initiated by addition of H2O2 to 1 mM and stopped by freezing at −20° C. Coomassie blue-stained gels after collagenase digestion of the samples and SDS-PAGE (FIG. 8B) Schematic of Br-Free chloride salt purification apparatus and setup. […] Reagent KCl was commercially obtained and unaltered prior to analysis. 100 mM solutions were made with 18MΩ deionized water. (FIG. 8C) Coomassie blue stained gel of collagenase digested PFHR-9 matrix reaction assay. Reaction buffered contained 10 mM phosphate buffer (pH 7.4), 100 mM Br-Free or Commercially obtained reagent grade KCl, as well as 1 mM H2O2 and 200 μM PHG where appropriate. (FIG. 8D) SDS-PAGE and coomassie blue stain of hPXDN (27.25 nM) and NC1 domain (1.3 μM) reaction and subsequent densiometric quantitation of S═N bond formation stiochiometry in response to NaBr addition. hPXDN and PFHR-9 NC1 domain were prepared and purified as described (5), except with all buffers for all purification steps (dialysis, chromatography, gradient ultracentrifugation) made with Br-Free chloride salts. Reactions were run for 10 minutes at 37° C. with 10 μM H2O2 as the terminal oxidant. Dose-response curve run in the presence of 1× Br-Free PBS. Reactions were quenched with 0.2 mg/ml Catalase, 20 mM Methionine, and 1 mM PHG. EC50 value±95% C.I. from two independent experiments with each data point plotted and fit.
Uncrosslinked PFHR9 matrix was extensively washed into 10 mM phosphate buffer (pH 7.4) that was supplemented with 100 mM KF to maintain ionic strength. One hour reactions at 37° C. were initiated by addition of H2O2 to 1 mM and stopped by freezing at −20° C. […] Samples were digested with collagenase at 37° C. overnight and visualized by SDS-PAGE using 12% gels under non-reducing conditions with Coomassie staining.
PFHR-9 cells treated with potassium iodide (1-10 mM) to eliminate NC1 hexamer crosslinks were used for basement membrane isolation. To test halide dependency, the inventors established halide-free conditions by washing extensively (at least five times) with 10 mM sodium phosphate pH 7.4. To try to extract or inactivate endogenous basement membrane peroxidase activity, the inventors extracted the matrix preparation twice with 2M guanidine-Cl, 50 mM Tris-Cl pH 7.5 and 10 mM EDTA-Na pH 8 followed by extensive washing with 1×PBS. Basement membrane was resuspended in the desired buffer with or without cofactors and inhibitors to examine in vitro NC1 crosslinking under various conditions. Basement membranes were collagenase solubilized to delineate collagen IV NC1 sulfilimine crosslink formation with SDS-PAGE and Coomassie blue staining membrane was isolated, washed extensively and resuspended in 1×PBS. Azide (0-10 mM) and 1 mM H2O2 were added and allowed to react for 1 h at 37° C. The matrix was pelleted, washed extensively with 1×PBS and solubilized with 1×PBS plus 2% (w/v) SDS. Solubilized proteins were reacted with 100 μM Tris[(1-benzyl-1H-1,2,3-triazol-4-yl)methyl]amine (Anaspec), 1 mM Tris(2-carboxyethyl)phosphine hydrochloride (ThermoFisher Pierce), 1 mM cupric sulfate and 100 μM biotin alkyne (PEG4 carboxamide-propargyl biotin; Life Technologies) for 1 h at 37° C. Click chemistry reactions were quenched with 1 mM 3′-azido-3′-deoxythymidine (Sigma). For avidin-HRP detection, samples were electrophoresed under reducing conditions, transferred to nitrocellulose membranes and probed with streptavidin-HRP according to manufacturer instructions (ThermoFisher Pierce). To isolate biotinylated proteins, the inventors precipitated click reaction products with two volumes of cold acetone to remove reactants, washed them with 70% (v/v) acetone and then resolubilized them in 1×PBS plus 2% SDS.

[2] = molecular target: T2, collagen IV NC1 hexamer (Mus musculus, UniProt P02463+P08122); assay: Hypohalous acid oxidation of purified uncrosslinked NC1 hexamer; details: for effect of pretreatment on S═N bond formation by HOBr: NC1 hexamer pretreated with the substance, then treated with HOBr; for crosslinked dimeric subunits (percentage of dimeric subunit): 500 nM NC1 hexamer, 5 μM hypohalous acid, 30 min at 37° C. (FIG. 4A)
T2 sequence (P02463 1445-1669 limits assumed): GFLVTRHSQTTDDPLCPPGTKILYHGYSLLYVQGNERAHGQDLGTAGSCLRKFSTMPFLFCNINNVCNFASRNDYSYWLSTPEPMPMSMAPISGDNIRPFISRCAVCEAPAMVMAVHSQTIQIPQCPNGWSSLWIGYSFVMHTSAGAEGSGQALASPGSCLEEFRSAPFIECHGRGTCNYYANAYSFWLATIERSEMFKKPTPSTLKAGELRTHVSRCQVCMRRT
T2 sequence (P08122 1484-1707 limits assumed): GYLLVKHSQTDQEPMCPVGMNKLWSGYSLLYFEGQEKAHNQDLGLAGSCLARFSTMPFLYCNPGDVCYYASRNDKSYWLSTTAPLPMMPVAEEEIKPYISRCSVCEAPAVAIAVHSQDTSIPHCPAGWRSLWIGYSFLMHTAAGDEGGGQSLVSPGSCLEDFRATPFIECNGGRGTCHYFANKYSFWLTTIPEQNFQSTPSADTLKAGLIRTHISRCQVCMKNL

[3] = tested on: PFHR-9 cells; assay: Collagen IV sulfilimine crosslink formation in PFHR-9 cell culture (NC1 hexamer, SDS-PAGE); type: cell-based, mouse; details: for effect on NC1 dimer / crosslink formation in culture: PFHR9 matrix grown 5-8 days with potassium halide salts, SDS-PAGE; for IC50: halide/pseudohalide screen in cell culture, read-out: IC50, inhibition of S═N formation
[4] = matrix grown 5-8 days with potassium salts, 95% CI

Structure (SMILES): [Cl-].[K+] [Br-free KCl, KCl]
dimer formation with bromide-free chloride as halide source ([1]; 100 mM Br-free chloride salt, 1 mM H2O2, isolated PFHR-9 matrix): did not support dimer formation to levels comparable with untreated controls

Structure (SMILES): [F-].[K+] [Fluoride, potassium fluoride]
S═N bond formation in isolated matrix [1]: inert

sulfilimine bond formation in isolated basement membrane ([1]; inhibitor removed, with versus without H2O2 (FIG. 2C)): Sulfilimine bonds formed rapidly
Structure (SMILES): OO [H2O2, hydrogen peroxide]
effect of pretreatment on S═N bond formation by HOBr [2]: dose-dependent decrease in the crosslinking efficacy of HOBr

crosslinked dimeric subunits (percentage of dimeric subunit) [2]: increased significantly
crosslinked dimeric subunits (percentage of dimeric subunit) ([2]; listed as hypochlorous acid): yielded crosslinked dimeric subunits
concentration required to drive S═N bond formation ([2]; 5 μM NC1 hexamer, 5 minutes at 37° (FIG. 9A)): 50 µM
S═N bond formation as share of total Met93 oxidized ([2]; oxidation event 1 (OE1), S—Cl or S—Br halosulfonium intermediate): 19%
Structure (SMILES): OCl [HOCl, hypochlorous acid]
effect of pretreatment on S═N bond formation by HOBr [2]: decreased with pretreatment of increasing levels of HOCl

Structure (SMILES): [Br-].[K+] [KBr, potassium bromide]
effect on NC1 dimer / crosslink formation in culture [3]: dimer enhancement
EC50 ([3]; halide screen in cell culture, matrix grown 5-8 days with potassium salts, 95% CI, read-out: EC50, enhancement of S═N formation): 75 µM

Structure (SMILES): N#C[S-].[K+] [KSCN, potassium thiocyanate]
effect on NC1 dimer / crosslink formation in culture [3]: dimer inhibition
effect on NC1 dimer / crosslink formation in culture ([3]; listed as SCN^−): potent inhibitor of peroxidasin-mediated crosslink formation
IC50 [3, 4]: 17 µM

Structure (SMILES): [I-].[K+] [potassium iodide]
effect on NC1 dimer / crosslink formation in culture [3]: dimer inhibition
IC50 [3, 4]: 84 µM
formation of collagen IV crosslinks ([3]; inhibitor present during cellular deposition of basement membrane, FIG. 2A: PHG 50 μM, MMI 1 mM, KI 10 mM, 3-AT 10 mM, BAPN 500 μM, putrescine 2.5 mM): inhibited collagen IV crosslink formation
S═N bond formation in isolated matrix [1]: demonstrated no S═N formation
S═N bond formation in isolated matrix ([1]; listed as KI): did not faciliate crosslinking
